Where two headings read alike, the source gives them in different places.
Key:
[1] = Compound exposure in rat brain and plasma after oral dosing (DMPK analysis); format: in vivo; conditions: male, Sprague Dawley, 3 hours post dose; for concentration at 3 h: read-out: Exp (exposure); for Kp at 3 h: brain/plasma, read-out: Brain/Plasma ratio
Method: (§1) Young adult Male Sprague Dawley rats of approximately 250 g weight were purchased from Charles River and received 0-30 mg/kg of vehicle (10% HP betaCD+1M MeSO4, pH 2.5) or test compounds (dissolved in vehicle) only by oral gavage (p.o). The compounds are dosed at a volume of 5 ml/kg. Cohorts of 5-10 animals were established for each treatment condition.
(§2) At T=180 minutes after initial dosing the animals were stunned and decapitated with a guillotine. Trunk-blood was sampled in EDTA coated tubes after decapitation of the animal. The blood was centrifuged at 2200G at 4° C. for 15 minutes and the plasma was collected and frozen at −80° C. The blood was aliquoted for Aβ ELISA and DMPK analysis. Immediately following sacrifice, the brain was extracted and split into 2 halves. The right hemibrains were snap frozen on dry ice and stored at −80° C. The left half was dissected; with the front forebrain taken for Aβ ELISA and the remainder used for DMPK analysis. These samples were also snap frozen on dry ice and stored at −80° C. until use for analysis.
The results of the administration of representative Compounds of Examples 1, 2, 5, […], of brain and plasma samples collected at 3 hours post dose and then following exposures, as described above, are tabulated below.

[2] = target: human BACE1 (Homo sapiens, UniProt P56817); assay: BACE1 efficacy assay (FRET-based, commercial BACE1 kit); format: biochemical; set-up: purchased Life Technologies P2985; conditions: 10 μM test compound
Sequence of human BACE1 (P56817 46-501): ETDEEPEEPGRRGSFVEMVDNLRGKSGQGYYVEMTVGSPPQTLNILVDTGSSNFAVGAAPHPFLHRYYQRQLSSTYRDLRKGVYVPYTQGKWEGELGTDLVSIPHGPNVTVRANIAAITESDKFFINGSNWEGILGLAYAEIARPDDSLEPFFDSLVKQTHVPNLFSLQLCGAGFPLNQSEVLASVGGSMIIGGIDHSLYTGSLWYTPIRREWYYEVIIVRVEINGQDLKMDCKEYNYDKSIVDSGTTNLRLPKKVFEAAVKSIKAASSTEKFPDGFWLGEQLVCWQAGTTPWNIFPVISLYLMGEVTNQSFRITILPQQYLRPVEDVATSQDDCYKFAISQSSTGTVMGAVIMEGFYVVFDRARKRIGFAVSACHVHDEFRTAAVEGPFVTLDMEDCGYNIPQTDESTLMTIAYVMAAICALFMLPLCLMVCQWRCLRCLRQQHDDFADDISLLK
Method: The efficacy assay was performed as a FRET-based assay using a commercially available BACE1 kit (Life Technologies, P2985). 2 μl test compound at 10 μM (final concentration) and 15 μl BACE1 enzyme from the kit (final concentration 3 nM) were preincubated for 15 minutes at room temperature before addition of 15 μl of substrate from the kit (250 nM final concentration) and incubated for additional 90 minutes at room temperature. The assay plate was subsequently read in a Pherastar (Ex540/Em590). The enzyme activity observed in presence of test compound were normalized to the enzyme activity observed in presence of buffer and 10 μM (final concentration) of the high affinity BACE1 reference inhibitor (S)-6-[3-Chloro-5-(5-prop-1-ynyl-pyridin-3-yl)-thiophen-2-yl]-2-imino-3,6-dimethyl-tetrahydropyrimidin-4-one, respectively. The efficacy of the test compounds was evaluated at 10 μM (final concentration) and defined as the percent inhibition of the enzyme activity using the equation % inhibition=100%−normalized enzyme activity in percent.

[3] = test system: P-gp (MDR1); assay: MDCK-MDR1 assay (permeability, efflux ratio); format: in vitro ADME; conditions: dog, Papp BA/Papp AB, 60-minute incubation
[4] = test system: Aβ40 peptide; assay: Assessment of Aβ peptide levels in rat brain and plasma following BACE1 inhibition (Aβ40 ELISA); format: in vivo; conditions: 3 hours post dose, vs vehicle
Method: Assessment of Aβ Peptide Levels in Rat Brain and Plasma Following BACE1 Inhibition. Animals.
as §1, §2
The cortex samples were thawed slightly on wet ice before they were homogenized with a small volume dispersing instrument (T10 basic ULTRA-TURRAX®) which was set at speed 5 for approximately 5-7 sec. The tissue was processed in a 10 times volume of the weight, for example 100 mg of tissue was homogenized in 1000 μL of Homogenization buffer. Homogenization buffer: 50 ml Milli Q water+50 nM NaCl+0.2% Diethylamin (DEA)+1 tablet of Complete Protease inhibitor cocktail+1 nM 4-(2-aminoethyl) benzenesulfonyl fluoride hydrochloride irreversible serine protease inhibitor (AEBSF).
After homogenization 450 μL aliquots of the samples are collected into a 1.5 ml Eppendorf tube and placed on wet ice, 0.5% NP-40 (50 ul) was added to all samples and then they were incubated on ice for 30 min. After which all samples were sonicated using an Ultrasonic homogenizer with 20 kHz homogeneous sound (SONOPLUS HD2070, Bandelin Electronic) 10 pulse set at 12-13% power to extract all the Aβ species. The samples were then centrifuged (Ole Dich 157 MPRF Micro centrifuge) at 20000G for 20 minutes at 4° C. After centrifugation 285 μL of the supernatant was pipetted into 600 μL microtubes tubes and neutralized with 15 μL of 1M Tris-HCL buffer.
WAKO 294-62501 Human/Rat Abeta amyloid (40) kit was used for all ELISA analyses. 30 μL plasma samples or 30 μL of the cortex supernatants generated as described above were placed in 600 μL microtubes tubes on wet ice. To this 30 μL of 8M urea (AppliChem A1049, 9025) was added to generate a 2-fold dilution. Both plasma and cortex supernatants were incubated on ice for 30 min. Standard rows were prepared from the standard peptide stock provided in the kit and standard diluent containing 1.6M urea (200 μL 8M urea+800 μL of standard diluent) and 0.8M urea (400 μL 8M Urea+3600 μL Standard diluent). A serial 2-fold dilution of Aβ40 from 100 pmol/ml to 0 pmol/L was prepared for the assay.
After incubation with urea, all samples were further diluted by addition of 5 times standard diluent from the Kit. This was done by adding 240 μL Standard Diluent to 60 μL sample/urea mixture, which was then mixed well. 100 μL of each diluted sample was pipetted into designated wells of the ELISA plate in duplicates. The plate was then covered and incubated overnight at 4° C. The following day, the ELISA kit was brought to room temperature before use. The incubated plate was washed 5 times with the 20× washing solution diluted in Milli Q water. 100 μL HRP-conjugate was applied to each well, and the plate was covered and incubates at 4° C. for 1 hr. The wash was repeated again for 5 times. 100 μL 3,3′,5,5′-Tetramethylbenzidine (TMB) solution was applied to each well and the plate was covered and incubated in the dark at room temperature for 30 minutes. […]

concentration at 3 h ([1]; Brain, 10 mg/kg p.o.) [ng/g] | concentration at 3 h ([1]; Brain, 30 mg/kg p.o.) [ng/g] | concentration at 3 h ([1]; Plasma, 10 mg/kg p.o.) [ng/g] | concentration at 3 h ([1]; Plasma, 30 mg/kg p.o.) [ng/g] | Kp at 3 h ([1]; 10 mg/kg p.o.) | Kp at 3 h ([1]; 30 mg/kg p.o.) | inhibition at 10 µM [2] [%] | efflux ratio at 60 min, 0.5 μM [3] | SMILES | Aβ40 reduction ([4]; Brain, 10 mg/kg p.o.) [%] | Aβ40 reduction ([4]; Brain, 30 mg/kg p.o.) [%] | Aβ40 reduction ([4]; Plasma, 10 mg/kg p.o.) [%] | Aβ40 reduction ([4]; Plasma, 30 mg/kg p.o.) [%]
93 | 479 | 88 | 239 | 1.05 | 2.01 | 104 | 0.94 | COc1cnc(C(=O)Nc2ccc(F)c([C@]34COC[C@@]3(F)C[C@@](C)(F)C(N)=N4)c2)cn1 [Example 7, N-(3-((3R,4aR,7aS)-2-amino-3,4a-difluoro-3-methyl-3,4,4a,5,7,7a-hexahydrofuro[3,4-b]pyridin-7a-yl)-4-fluorophenyl)-5-methoxypyrazine-2-carboxamide] | 48 | 64 | 42 | 50
153 | 776 | 399 | 1830 | 0.38 | 0.42 | 99 | 1.85 | [2H]C([2H])([2H])Oc1ccc(C(=O)Nc2ccc(F)c([C@]34COC[C@H]3C[C@@](F)(CF)C(N)=N4)c2)nc1 [Example 22, N-(3-((3S,4aS,7aS)-2-amino-3-fluoro-3-(fluoromethyl)-3,4,4a,5-tetrahydrofuro[3,4-b]pyridin-7a-yl)-4-fluorophenyl)-5-(methoxy-d3)picolinamide] | 23 | 48 | 33 | 43

— patent publication US20180230160A1, “2-AMINO-7A-PHENYL-3,4,4A,5,7,7A-HEXAHYDROFURO[3,4-B]PYRIDINES AS BACE1 INHIBITORS” (H. Lundbeck A/S, priority 2015, published 2018)
